From patent publication US11352352B2, “Aminopyrimidine compound, preparation method therefor and use thereof” (BEIJING ADAMADLE BIOTECHNOLOGY LIMITED LIABILITY COMPANY, priority 2017, dated 2022)

Columns and labels:
Experiment in all cases: Cell proliferation inhibition experiment, CellTiter-Glo (CTG) method
Assay type in all cases: cell-based
A-431 = conditions: Homo sapiens, A-431, 72 h, A-431 cells, 3 days
Outline: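 Log-phase cells (viability >90%) were plated and incubated overnight, then dosed in triplicate across nine 3-fold concentrations. The top dose was 30 μM on A-431 and 1.111 μM on NCI-H1975 and PC-9. Survival after 3 days was measured by CellTiter-Glo and IC50 derived by non-linear regression.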

NCI-H1975 = conditions: for IC50: Homo sapiens, NCI-H1975, 72 h, NCI-H1975 cells, CTG, 3 days; for A-431/NCI-H1975 Selectivity: ratio of A-431 IC50 to NCI-H1975 IC50
Outline: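 NCI-H1975 cells with viability above 90% by trypan blue were seeded at 90 μL per well in black 96-well plates and incubated overnight at 37° C., 5% CO2. Compounds were added at nine concentrations in triplicate, and viability was measured with CellTiter-Glo luminescence on EnVision. IC50 came from non-linear S-curve fitting in GraphPad Prism 5.0.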

PC-9 = conditions: Homo sapiens, PC-9, 72 h, PC-9 cells, 3 days
Outline: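 Cells in log-phase growth (viability above 90% by trypan blue) were seeded at 90 μL per well in black-walled, clear-bottom 96-well plates and incubated overnight at 37° C., 5% CO2. A T0 plate was read the next day. Test compounds were added at nine concentrations in triplicate with a solvent control. Viability was measured by CellTiter-Glo luminescence on EnVision, and IC50 came from non-linear S-curve fitting in GraphPad Prism 5.0.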

| Compound | IC50 (A-431) [nM] | IC50 (NCI-H1975) [nM] | A-431/NCI-H1975 Selectivity (NCI-H1975) | IC50 (PC-9) [nM] |
| --- | --- | --- | --- | --- |
| C=CC(=O)Nc1cc(Nc2nccc(-c3ccc4c(cnn4C)c3)n2)c(OC)cc1N1CCN(CCN(C)C)CC1 [compound 113] | 1360 | 56.6 | 24.0 | 45.6 |
| C=CC(=O)Nc1cc(Nc2cc(-c3ccc4c(cnn4C)c3)ncn2)c(OC)cc1N(C)C1CCC(N(C)C)CC1 (centres unmarked) [compound 71] | 2560 | 33.1 | 77.3 | 27.8 |
| C=CC(=O)Nc1cc(Nc2cc(-c3ccc4c(C)nn(C)c4c3)ncn2)c(OC)cc1N1CC(C)N(C)C(C)C1 (centres unmarked) [compound 56] | 1230 | 113 | 10.9 | 56.7 |
| C=CC(=O)Nc1cc(Nc2cc(-c3ccc4c(cnn4C)c3)ncn2)c(CC)cc1N1CCC(N2CCOCC2)CC1 [compound 283] | 1520 | 37.3 | 40.8 | 46.9 |
| C=CC(=O)Nc1cc(Nc2nccc(-c3ccc4c(cnn4C(C)C)c3)n2)c(OC)cc1N(C)CCN(C)C [compound 238] | 1940 | 51.6 | 37.6 | 99.4 |
| C=CC(=O)Nc1cc(Nc2cc(-c3ccc4cnn(C)c4c3)ncn2)c(OC)cc1N(C)CCCN(C)C [compound 79] | 1100 | 73.6 | 15 | 67.9 |
| C=CC(=O)Nc1cc(Nc2cc(-c3ccc4cnn(C)c4c3)ncn2)c(OC(F)F)cc1N1CCC(N2C[C@@H](C)O[C@@H](C)C2)CC1 [compound 162] | 763 | 16.8 | 45.4 | 18.9 |
| C=CC(=O)Nc1cc(Nc2cc(-c3ccc4c(cnn4C)c3)ncn2)c(OC)cc1N1CCN(C(C)C)CC1 [compound 19] | 850 | 18.1 | 47.0 | 10.7 |
| C=CC(=O)Nc1cc(Nc2cc(-c3ccc4c(cnn4C)c3)ncn2)c(OC(F)F)cc1N(C)C1CCN(C)C1 (centres unmarked) [compound 111] | 948 | 18 | 52.7 | 16.8 |
| C=CC(=O)Nc1cc(Nc2nccc(-c3ccc4c(cnn4C)c3)n2)c(OC)cc1N(C)C1CCN(C)CC1 [compound 231] | 1730 | 96.8 | 17.8 | 76.5 |
| C=CC(=O)Nc1cc(Nc2cc(-c3cc4cnn(C)c4cc3F)ncn2)c(OC)cc1N(C)CCN(C)C [compound 5] | 302 | 5.6 | – | 3.9 |
| C=CC(=O)Nc1cc(Nc2nccc(-c3ccc4c(cnn4C)c3)n2)c(OC)cc1N(C)CCO [compound 279] | 2900 | 25.7 | 112.8 | 21.4 |
| C=CC(=O)Nc1cc(Nc2cc(-c3ccc4cnn(C)c4c3)ncn2)c(OC)cc1N1CCN(CCN(C)C)CC1 [compound 77] | 1150 | 34.5 | 33.5 | 16.4 |
| C=CC(=O)Nc1cc(Nc2cc(-c3ccc4c(cnn4C)c3)ncn2)c(OC)cc1N(C)C1CCN(CCOC)C1 (centres unmarked) [compound 222] | 983 | 13.6 | 72.3 | 20.7 |
| C=CC(=O)Nc1cc(Nc2cc(-c3ccc4c(cnn4C)c3)ncn2)c(OC)cc1N1CCN(CC)[C@@H](C)C1 [compound 28] | 1430 | 32.3 | 44.2 | 19.6 |
| C=CC(=O)Nc1cc(Nc2cc(-c3ccc4cnn(C)c4c3)ncn2)c(OC)cc1OCCN(C)C [compound 169] | 1640 | 34.3 | 47.9 | 11.4 |

| Compound | IC50 (A-431) [nM] | IC50 (NCI-H1975) [nM] | A-431/NCI-H1975 Selectivity (NCI-H1975) | IC50 (PC-9) [nM] |
| --- | --- | --- | --- | --- |
| C=CC(=O)Nc1cc(Nc2cc(-c3cc4cnn(C)c4cc3F)ncn2)c(OC)cc1N1C[C@@H](C)N(C)[C@@H](C)C1 [compound 192] | 1840 | 47 | 39.2 | 33 |
| C=CC(=O)Nc1cc(Nc2cc(-c3ccc4c(cnn4C)c3)ncn2)c(OC(F)(F)F)cc1N(C)CCN(C)C [compound 151] | 2050 | 58.9 | 34.7 | 79.9 |
| C=CC(=O)Nc1cc(Nc2cc(-c3ccc4nc(C)sc4c3)ncn2)c(OC)cc1OCCN(C)C [compound 285] | 633 | 40.6 | 15.6 | 23.1 |
| C=CC(=O)Nc1cc(Nc2cc(-c3ccc4c(cnn4C(C)C)c3)ncn2)c(OC)cc1N(C)CCN(C)C [compound 15] | 1290 | 21.6 | 59.7 | 12.7 |
| C=CC(=O)Nc1cc(Nc2cc(-c3cc4cnn(C)c4cc3F)ncn2)c(OC)cc1N1CCC(N(CC)CC)CC1 [compound 193] | 1480 | 52.8 | 28.0 | 30.9 |
| C=CC(=O)Nc1cc(Nc2cc(-c3ccc4c(cnn4C)c3)ncn2)c(OC)cc1N(C)C1CCN(CC)CC1 [compound 226] | 2390 | 68.2 | 35.0 | 54.6 |
| C=CC(=O)Nc1cc(Nc2cc(-c3ccc4c(cnn4C)c3)ncn2)c(OC)cc1N(C)CCCN(C)C [compound 40] | 1960 | 57 | 34.5 | 46.1 |
| C=CC(=O)Nc1cc(Nc2cc(-c3ccc4cnn(C)c4c3)ncn2)c(OC)cc1N1CCC(N(CC)CC)CC1 [compound 166] | 986 | 16 | – | 8.9 |
| C=CC(=O)Nc1cc(Nc2cc(-c3ccc4c(cnn4C)c3)ncn2)c(OC)cc1N(C)C(=O)CN(C)C [compound 288] | 1920 | 98.2 | 19.6 | 76.7 |
| C=CC(=O)Nc1cc(Nc2cc(-c3ccc4c(cnn4C)c3)ncn2)c(OC(F)F)cc1N1CCC(N2C[C@@H](C)N(C)[C@@H](C)C2)CC1 [compound 146] | 800 | 10.2 | 78.5 | 14.9 |
| C=CC(=O)Nc1cc(Nc2cc(-c3ccc4c(cnn4C)c3)ncn2)c(OC2CC2)cc1N(C)CCN(C)C [compound 291] | 2730 | 89.5 | 30.6 | 54.3 |
| C=CC(=O)Nc1cc(Nc2cc(-c3ccc4cnn(C)c4c3)ncn2)c(OC)cc1N(C)CCN(C)C(C)C [compound 196] | 2020 | 36.4 | 55.4 | 20.7 |
| C=CC(=O)Nc1cc(Nc2cc(-c3ccc4c(cnn4C)c3)ncn2)c(OC(F)F)cc1N1CCN(CC2CC2)CC1 [compound 149] | 1370 | 28.4 | 48.2 | 674 |
| C=CC(=O)Nc1cc(Nc2cc(-c3ccc4c(cnn4C)c3)ncn2)c(OC)cc1N(C)CCN1CCN(C2CC2)CC1 [compound 127] | 2300 | 45.1 | 51.0 | 163 |
| C=CC(=O)Nc1cc(Nc2cc(-c3ccc4cnn(C)c4c3)ncn2)c(OC)cc1N1CCC(N2CCN(C)CC2)CC1 [compound 52] | 615 | 41.7 | 14.7 | 39 |
